These results are taken from patent publication US11820766B2, “Monoacylglycerol lipase modulators” (Janssen Pharmaceutica NV, priority 2018, dated 2023).

Where a name gives a salt, the structure may show the parent alone.

For one experiment, the target named is T1, human MGL from HeLa cells (Homo sapiens, UniProt Q99685).
T1 construct: combining endogenously expressed MGL from HeLa cells with test compounds; endogenous in cells; host or cells: HeLa cells / cell homogenates
T1 sequence (Q99685 1-303): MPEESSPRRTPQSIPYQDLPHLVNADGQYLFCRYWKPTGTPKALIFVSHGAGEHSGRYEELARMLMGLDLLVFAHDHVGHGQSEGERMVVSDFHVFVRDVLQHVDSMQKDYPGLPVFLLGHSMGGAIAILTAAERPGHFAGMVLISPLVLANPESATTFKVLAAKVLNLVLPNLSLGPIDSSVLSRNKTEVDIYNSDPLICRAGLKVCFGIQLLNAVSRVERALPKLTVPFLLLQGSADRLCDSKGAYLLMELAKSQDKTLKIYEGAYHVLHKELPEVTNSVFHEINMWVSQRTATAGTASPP
The experiment can be described thus: In vitro MGL activity assay: [glycerol-1,3-3H]-oleyl glycerol cleavage by MGL from HeLa cells. Particulars: 300 nM [Glycerol-1,3-3H]-oleyl glycerol, one hour. The format is biochemical. The source says: MGL is the predominant hydrolase in HeLa cells/cell homogenates.
What is called IC50 is the concentration that inhibits the measured activity by half. Low values mean greater potency in that assay, high ones weaker potency in that assay. For `C[C@H]1c2nn(C)c(-c3cc(F)c(F)c(F)c3)c2CCN1C(=O)c1cn(C)nc1C1(C)CC1` [Example 347, [(7S)-2,7-Dimethyl-3-(3,4,5-trifluorophenyl)-5,7-dihydro-4H-pyrazolo[3,4-c]pyridin-6-yl]-[1-methyl-3-(1-methylcyclopropyl)pyrazol-4-yl]methanone], the IC50 worked out at 2490 nM. Still for that read-out and setting: with `C[C@H]1c2nn(C)c(-c3cc(F)c(F)c(F)c3)c2CCN1C(=O)c1cccn2ncc(F)c12` [Example 377, [(7S)-2,7-Dimethyl-3-(3,4,5-trifluorophenyl)-5,7-dihydro-4H-pyrazolo[3,4-c]pyridin-6-yl]-(3-fluoropyrazolo[1,5-a]pyridin-4-yl)methanone] the figure was 4.68 nM; with `CC(C)Oc1cccc(-c2c3c(nn2C)[C@H](C)N(C(=O)c2ccc4ncccc4c2)CC3)c1` [Example 498, [(7S)-3-(3-Isopropoxyphenyl)-2,7-dimethyl-5,7-dihydro-4H-pyrazolo[3,4-c]pyridin-6-yl]-(6-quinolyl)methanone], 361 nM. As for `C[C@H]1c2nn(C)c(-c3cc(F)c(F)c(F)c3)c2CCN1C(=O)c1ccnc2cccnc12` [Example 485, [(7S)-2,7-Dimethyl-3-(3,4,5-trifluorophenyl)-5,7-dihydro-4H-pyrazolo[3,4-c]pyridin-6-yl]-(1,5-naphthyridin-4-yl)methanone], the IC50 amounted to 33.2 nM.

Turning to `C[C@H]1c2nn(C)c(-c3cccc4c3OCO4)c2CCN1C(=O)c1ccc2ncccc2c1` [Example 541, [(7S)-3-(1,3-Benzodioxol-4-yl)-2,7-dimethyl-5,7-dihydro-4H-pyrazolo[3,4-c]pyridin-6-yl]-(6-quinolyl)methanone], half-maximal inhibition (IC50) required 2.17 nM.

`C[C@H]1c2nn(C)c(-c3cc(F)c(F)c(F)c3)c2CCN1C(=O)c1cnc2ccccc2n1` [Example 477, [(7S)-2,7-Dimethyl-3-(3,4,5-trifluorophenyl)-5,7-dihydro-4H-pyrazolo[3,4-c]pyridin-6-yl]-quinoxalin-2-yl-methanone] came in with an IC50 of 126 nM. `C[C@H]1c2nn(C)c(-c3cc(F)c(F)c(F)c3)c2CCN1C(=O)c1cnn2cccnc12` [Example 448, [(7S)-2,7-Dimethyl-3-(3,4,5-trifluorophenyl)-5,7-dihydro-4H-pyrazolo[3,4-c]pyridin-6-yl]-pyrazolo[1,5-a]pyrimidin-3-yl-methanone] displayed a half-inhibitory concentration (IC50) of 113 nM.

On to `Cc1cc(C(=O)N2CCc3c(nn(C)c3-c3cc(F)c(F)c(F)c3)[C@@H]2C)n2ncnc2n1` [Example 472, [(7S)-2,7-Dimethyl-3-(3,4,5-trifluorophenyl)-5,7-dihydro-4H-pyrazolo[3,4-c]pyridin-6-yl]-(5-methyl-[1,2,4]triazolo[1,5-a]pyrimidin-7-yl)methanone], for which the IC50 was determined as 1560 nM. This IC50 is about 14-fold higher than that of the molecule before. The molecule `C[C@H]1c2nn(C)c(-c3cc(F)c(F)c(F)c3)c2CCN1C(=O)c1cncc2cn[nH]c12` [Example 434, [(7S)-2,7-Dimethyl-3-(3,4,5-trifluorophenyl)-5,7-dihydro-4H-pyrazolo[3,4-c]pyridin-6-yl]-(1H-pyrazolo[4,3-c]pyridin-7-yl)methanone] yielded an IC50 of 277 nM. Compared with the last molecule, the IC50 is about 5.6-fold lower. In the case of `C[C@H]1c2nn(C)c(-c3ccc4c(c3)OCO4)c2CCN1C(=O)c1ccc2ncccc2c1` [Example 540, [(7S)-3-(1,3-Benzodioxol-5-yl)-2,7-dimethyl-5,7-dihydro-4H-pyrazolo[3,4-c]pyridin-6-yl]-(6-quinolyl)methanone], it took 133 nM to reach half-maximal inhibition (IC50). The molecule `C[C@H]1c2nn(C)c(-c3cc(F)c(F)c(F)c3)c2CCN1C(=O)c1c[nH]c2ncccc12` [Example 373, [(7S)-2,7-Dimethyl-3-(3,4,5-trifluorophenyl)-5,7-dihydro-4H-pyrazolo[3,4-c]pyridin-6-yl]-(1H-pyrrolo[2,3-b]pyridin-3-yl)methanone] yielded an IC50 of 23.2 nM. In the case of `C[C@H]1c2nn(C)c(-c3cc(F)c(F)c(F)c3)c2CCN1C(=O)c1cnn(C2CC2)c1C(F)(F)F` [Example 346, [1-Cyclopropyl-5-(trifluoromethyl)pyrazol-4-yl]-[(7S)-2,7-dimethyl-3-(3,4,5-trifluorophenyl)-5,7-dihydro-4H-pyrazolo[3,4-c]pyridin-6-yl]methanone], the IC50 stood at 22.4 nM. As for `COc1ccc2c(C(=O)N3CCc4c(nn(C)c4-c4cc(F)c(F)c(F)c4)[C@@H]3C)cnn2c1` [Example 388, [(7S)-2,7-Dimethyl-3-(3,4,5-trifluorophenyl)-5,7-dihydro-4H-pyrazolo[3,4-c]pyridin-6-yl]-(6-methoxypyrazolo[1,5-a]pyridin-3-yl)methanone.TFA salt], the IC50 was 60.7 nM. In turn, `C[C@H]1c2nn(C)c(-c3cc(F)c(F)c(F)c3)c2CCN1C(=O)c1ccnc2c1CCOC2` [Example 565, 6,8-Dihydro-5H-pyrano[3,4-b]pyridin-4-yl-[(7S)-2,7-dimethyl-3-(3,4,5-trifluorophenyl)-5,7-dihydro-4H-pyrazolo[3,4-c]pyridin-6-yl]methanone] gave an IC50 of 108 nM. Take `C[C@H]1c2nn(C)c(-c3cc(F)c(F)c(F)c3)c2CCN1C(=O)c1ccc2cnccc2c1` [Example 544, [(7S)-2,7-Dimethyl-3-(3,4,5-trifluorophenyl)-5,7-dihydro-4H-pyrazolo[3,4-c]pyridin-6-yl]-(6-isoquinolyl)methanone]: the IC50 came to 10.2 nM. Turning to `C[C@H]1c2nn(C)c(-c3cc(F)c(F)c(F)c3)c2CCN1C(=O)c1ncnc2c1ncn2C` [Example 606, [(7S)-2,7-Dimethyl-3-(3,4,5-trifluorophenyl)-5,7-dihydro-4H-pyrazolo[3,4-c]pyridin-6-yl]-(9-methylpurin-6-yl)methanone], the IC50 amounted to 724 nM.

Staying with this experiment, now noted: 300 nM [Glycerol-1,3-3H]-oleyl glycerol, one hour incubation.
With `Cc1ccc(-c2c3c(nn2C)[C@H](C)N(C(=O)c2ccc4nccnc4c2)CC3)o1` [Example 107, (S)-(2,7-Dimethyl-3-(5-methylfuran-2-yl)-2,4,5,7-tetrahydro-6H-pyrazolo[3,4-c]pyridin-6-yl)(quinoxalin-6-yl)methanone], the IC50 came out at 261 nM. The molecule `C[C@H]1c2nn(C)c(-c3cc(F)c(F)c(F)c3)c2CCN1C(=O)c1cn(C2CC2)nc1C(F)(F)F` [Example 332, [1-Cyclopropyl-3-(trifluoromethyl)pyrazol-4-yl]-[(7S)-2,7-dimethyl-3-(3,4,5-trifluorophenyl)-5,7-dihydro-4H-pyrazolo[3,4-c]pyridin-6-yl]methanone] showed an IC50 of 143 nM. Still for that read-out and setting: in the case of `CC(C)Oc1cncc(C(=O)N2CCc3c(nn(C)c3-c3cccc(Cl)c3)[C@@H]2C)c1` [Example 122, (S)-(3-(3-Chlorophenyl)-2,7-dimethyl-2,4,5,7-tetrahydro-6H-pyrazolo[3,4-c]pyridin-6-yl)(5-isopropoxypyridin-3-yl)methanone] it was 78.2 nM; in that of `C[C@H]1c2nn(C)c(-c3cc(F)c(F)c(F)c3)c2CCN1C(=O)c1cccc(-n2cnnc2)c1` [Example 290, [(7S)-2,7-Dimethyl-3-(3,4,5-trifluorophenyl)-5,7-dihydro-4H-pyrazolo[3,4-c]pyridin-6-yl]-[3-(1,2,4-triazol-4-yl)phenyl]methanone], 71.8 nM; in that of `COc1cc(C(=O)N2CCc3c(nn(C)c3-c3cc(F)c(F)c(F)c3)[C@@H]2C)cc(-n2cnnc2)c1` [Example 298, [(7S)-2,7-Dimethyl-3-(3,4,5-trifluorophenyl)-5,7-dihydro-4H-pyrazolo[3,4-c]pyridin-6-yl]-[3-methoxy-5-(1,2,4-triazol-4-yl)phenyl]methanone], 18.7 nM. The molecule `Cn1nc2c(c1-c1ccccc1)CCN(C(=O)c1ccc3cc[nH]c3c1)C2` [Example 46, (1H-Indol-6-yl)(2-methyl-3-phenyl-2,4,5,7-tetrahydro-6H-pyrazolo[3,4-c]pyridin-6-yl)methanone] returned an IC50 of 359 nM. Still for that read-out and setting: with `Cc1nc2cccc(Cl)n2c1C(=O)N1CCc2c(nn(C)c2-c2ccccc2)C1` [Example 82, (5-Chloro-2-methylimidazo[1,2-a]pyridin-3-yl)(2-methyl-3-phenyl-2,4,5,7-tetrahydro-6H-pyrazolo[3,4-c]pyridin-6-yl)methanone] the figure was 4810 nM. The same measure, in the same setting: with `COc1cc(C(=O)N2CCc3c(nn(C)c3-c3cc(F)c(F)c(F)c3)[C@@H]2C)ccn1` [Example 312, [(7S)-2,7-Dimethyl-3-(3,4,5-trifluorophenyl)-5,7-dihydro-4H-pyrazolo[3,4-c]pyridin-6-yl]-(2-methoxy-4-pyridyl)methanone] the figure was 81.7 nM.

In turn, `Cn1nc2c(c1-c1ccccc1)CCN(C(=O)c1ccn3cncc3c1)C2` [Example 78, Imidazo[1,5-a]pyridin-7-yl(2-methyl-3-phenyl-2,4,5,7-tetrahydro-6H-pyrazolo[3,4-c]pyridin-6-yl)methanone] showed an IC50 of 2000 nM. Take `C[C@H]1c2nn(C)c(-c3cccnc3)c2CCN1C(=O)c1ccc2nccnc2c1` [Example 108, (S)-(2,7-Dimethyl-3-(pyridin-3-yl)-2,4,5,7-tetrahydro-6H-pyrazolo[3,4-c]pyridin-6-yl)(quinoxalin-6-yl)methanone]: the IC50 came to 1300 nM.

For the molecule `Cn1nc2c(c1-c1ccccc1)CCN(C(=O)c1ccc3occc3c1)C2` [Example 35, Benzofuran-5-yl(2-methyl-3-phenyl-2,4,5,7-tetrahydro-6H-pyrazolo[3,4-c]pyridin-6-yl)methanone], the IC50 amounted to 482 nM. The molecule `C[C@H]1c2nn(C)c(-c3cc(F)c(F)c(F)c3)c2CCN1C(=O)c1cc(F)cc(-n2nccn2)c1` [Example 284, [(7S)-2,7-Dimethyl-3-(3,4,5-trifluorophenyl)-5,7-dihydro-4H-pyrazolo[3,4-c]pyridin-6-yl]-[3-fluoro-5-(triazol-2-yl)phenyl]methanone] yielded an IC50 of 15.6 nM.
